Patent publication US20060165649A1, “Methods of using and compositions comprising selective cytokine inhibitory drugs for the treatment and management of myeloproliferative diseases” (priority 2002, published 2006)

Tested on: anesthetized dogs
Test: Cardiovascular and respiratory function in anesthetized dogs (safety pharmacology)
Assay type: in vivo
Details: anesthetized Beagle dogs; three ascending doses 400, 800, and 1,200 mg/kg/day; infusion through the jugular vein; compared to the vehicle control group
Protocol: The pharmacological properties of 3-(3,4-dimethoxy-phenyl)-3-(1-oxo-1,3-dihydro-isoindol-2-yl)-propionamide, including activity comparisons with thalidomide, are characterized in in vitro studies. Studies examine the effects of 3-(3,4-dimethoxy-phenyl)-3-(1-oxo-1,3-dihydro-isoindol-2-yl)-propionamide on the production of various cytokines. In addition, a safety pharmacology study of 3-(3,4-dimethoxy-phenyl)-3-(1-oxo-1,3-dihydro-isoindol-2-yl)-propionamide is conducted in dogs and the effects of the compound on ECG parameters are examined further as part of three repeat-dose toxicity studies in primates.
The effects of 3-(3,4-dimethoxy-phenyl)-3-(l-oxo-1,3-dihydro-isoindol-2-yl)-propionamide on cardiovascular and respiratory function are investigated in anesthetized dogs. Two groups of Beagle dogs (2/sex/group) are used. One group receives three doses of vehicle only and the other receives three ascending doses of 3-(3,4-dimethoxy-phenyl)-3-(1-oxo-1,3-dihydro-isoindol-2-yl)-propionamide (400, 800, and 1,200 mg/kg/day). In all cases, doses of 3-(3,4-dimethoxy-phenyl)-3-(1-oxo-1,3-dihydro-isoindol-2-yl)-propionamide or vehicle are successively administered via infusion through the jugular vein separated by intervals of at least 30 minutes. […]

## COc1ccc(C(CC(N)=O)N2Cc3ccccc3C2=O)cc1OC (stereo not shown) [3-(3,4-dimethoxy-phenyl)-3-(1-oxo-1,3-dihydro-isoindol-2-yl)-propionamide]
  cardiovascular and respiratory changes: minimal
